[invAb] = inverted abasic unit; d = 2'-deoxy (DNA); m = 2'-O-methyl; r = 2'-OH (RNA); f = 2'-fluoro
How the values were obtained:
STAT6 mRNA [1] = experiment: STAT6 siNA screen and dose response in human A549 cells, STAT6 mRNA by quantitative RT-PCR (Taqman); type: cell-based; details: human A549 cells, 10 nM siNA, 24 hrs, normalized to GAPDH and non-targeting control, mean ± S.D., n = 3
Experimental: A549 (human; ATCC cat# CCL-185): Cells were cultured at 37° C. in the presence of 5% CO2 and grown in Ham's F12K medium with 2 mM L-glutamine adjusted to contain 1.5 g/L sodium bicarbonate and supplemented with fetal bovine serum at a final concentration of 10%, 100 μg/mL of streptomycin, and 100 U/mL penicillin.
(§1) Cells were plated in all wells of a tissue-culture treated, 96-well plate at a final count of 5000 cells/well in […], of the appropriate culture media. The cells were cultured for 24 hours after plating at 37° C. in the presence of 5% CO2.
(§2) After 24 hours, complexes containing siNA and RNAiMax were created as follows: A solution of RNAiMax diluted 33-fold in OPTI-MEM was prepared. In parallel, solutions of the siNAs for testing were prepared to a final concentration of 120 nM in OPTI-MEM. After incubation of RNAiMax/OPTI-MEM solution at room temperature for 5 min, an equal volume of the siNA solution and the RNAiMax solution were added together for each of the siNAs.
(§3) This solution was incubated at room temperature for 20 minutes. After incubation, 20 uL of the solution was added to each of the relevant wells. The final concentration of siNA in each well was 10 nM and the final volume of RNAiMax in each well was 0.3u1.
(§4) The time of incubation with the RNAiMax-siNA complexes was 24 hours and there was no change in media between transfection and harvesting, unless otherwise indicated.
(§5) RNA was extracted from a 96-well plate using the TaqMan® Gene Expression Cells-to-CT™ Kit (Cat#4399002) with a modified protocol. Briefly, a 60 uL (1 plate) or 110 uL (2 plates) of the Lysis Solution with DNase I was dispensed into each well of the Lysis Buffer Plate (twin.tec full skirt plate). The lysis buffer and stop plates were stored at 4° C. until the cells were washed.
(§6) The plate was spun at 1100 rpm for 5 minutes. The culture medium was aspirated and discarded from the wells of the culture plate. The lysis was performed automatically using a BioMek FX instrument and method. After the Biomek method was completed, the lysis plate was incubated for 2 min. at room temperature. The lysis plate can be stored for 2 hours at 4° C., or at −20° C. or −80° C. for two months.
(§7) Each well of the reverse transcription plate required 10 uL of 2× reverse transcriptase Buffer, luL of 20× reverse transcription enzyme and 2 uL of nuclease-free water. The reverse transcription master mix was prepared by mixing 2× reverse transcription buffer, 20× reverse transcription enzyme mix, and nuclease-free water. 13 uL of the reverse transcription master mix was dispensed into each well of the reverse transcription plate (semi-skirted). A separate reverse transcription plate was prepared for each cell plate. The plate was loaded onto a Biomek NX or Biomek FX Dual-96 and the Biomek method was run. The program is programmed to automatically added 7 uL of lysate from the cell lysis procedure described above into each well of the reverse transcription plate. The plate is sealed and spun on a centrifuge (1000 rpm for 30 seconds) to settle the contents to the bottom of the reverse transcription plate. The plate is placed in a thermocycler at 37° C. for 60 min, 95° C. for 5 min, and 4° C. until the plate is removed from the thermocycler. Upon removal, if not used immediately, the plate was frozen at −20° C.
(§8) A series of probes and primers were used to detect the various mRNA transcripts of the genes of 13-Actin (human cell line only), and of STATE and GAPDH in mouse and human cell lines. All Taqman probes and primers for the experiments here-in described were supplied as pre-validated sets by Applied Biosystems, Inc. (see Table 2).
The assays were performed on an ABI 7900 instrument, according to the manufacturer's instructions. A TaqMan Gene Expression Master Mix (provided in the Cells-to-CTT™, Applied Biosystems, Cat #4399002) was used. The PCR reactions were carried out at 50° C. for 2 min, 95° C. for 20 min followed by 40 cycles at 95° C. for 15 secs and 60° C. for 1 min. […]

STAT6 mRNA [2] = experiment: STAT6 siNA screen in mouse NIH 3T3 cells, STAT6 mRNA by quantitative RT-PCR (Taqman); type: cell-based; details: mouse NIH3T3 cells, 10 nM siNA, 24 hrs, normalized to GAPDH and non-targeting control, n = 2
Experimental: NIH 3T3 (mouse; ATCC cat# CRL-1658): Cells were cultured at 37° C. in the presence of 5% CO2 and grown in Dulbecco's modified Eagle's medium (DMEM) with 4 mM L-glutamine adjusted to contain 1.5 g/L sodium bicarbonate and 4.5 g/L glucose and supplemented with fetal bovine serum at a final concentration of 10%, 100 μg/mL of streptomycin, and 100 U/mL penicillin.
as §1, §2, §3, §4, §5, §6, §7, §8
The assays were performed on an ABI 7900 instrument, according to the manufacturer's instructions. A TaqMan Gene Expression Master Mix (provided in the Cells-to-CTT™, Applied Biosystems, Cat #4399002) was used. […]

Row | Substance | % KD STAT6 (STAT6 mRNA [1]) [%] | % KD STAT6 (STAT6 mRNA [2]) [%]
1 | 30023-DC: STAT6 siNA duplex; sense SEQ ID NO: 110, antisense SEQ ID NO: 111; target CACCUUAUGAUCUUGGAAU, site 2288 (sense CACCUUAUGAUCUUGGAAUTT; antisense AUUCCAAGAUCAUAAGGUGUU; sense: DNA at AGT, 2'-fluoro at CU, [invAb] at 5' end, 3' end, backbone not given here; antisense: sugars from the 5' end rrrffmmmmffmfmmmmfmmm, backbone not given here) [STAT6 siNA duplex; target CACCUUAUGAUCUUGGAAU, site 2288] | 15.3 ± 05.4 | −0.8 ± 3.8
2 | 30017-DC: STAT6 siNA duplex; sense SEQ ID NO: 98, antisense SEQ ID NO: 99; target GAUGCUUUCUGUUACAACA, site 421 (sense GAUGCUUUCUGUUACAACATT; antisense UGUUGUAACAGAAAGCAUCUU; sense: DNA at AGT, 2'-fluoro at CU, [invAb] at 5' end, 3' end, backbone not given here; antisense: sugars from the 5' end rrrfmfmmfmmmmmmfmffmm, backbone not given here) [STAT6 siNA duplex; target GAUGCUUUCUGUUACAACA, site 421] | −14.9 ± 9.1 | 85.1 ± 2
3 | 30029-DC: STAT6 siNA duplex; sense SEQ ID NO: 122, antisense SEQ ID NO: 123; target GUGUCCUGGACCUCACCAA, site 1830 (sense GUGUCCUGGACCUCACCAATT; antisense UUGGUGAGGUCCAGGACACUU; sense: DNA at AGT, 2'-fluoro at CU, [invAb] at 5' end, 3' end, backbone not given here; antisense: sugars from the 5' end rrrmfmmmmfffmmmmfmfmm, backbone not given here) [STAT6 siNA duplex; target GUGUCCUGGACCUCACCAA, site 1830] | 13.2 ± 7.8 | −17.5 ± 12.8
4 | 30011-DC: STAT6 siNA duplex; sense SEQ ID NO: 86, antisense SEQ ID NO: 87; target CCGAGAAUCUCUGCAGCAA, site 726 (sense CCGAGAAUCUCUGCAGCAATT; antisense UUGCUGCAGAGAUUCUCGGUU; sense: DNA at AGT, 2'-fluoro at CU, [invAb] at 5' end, 3' end, backbone not given here; antisense: sugars from the 5' end rrrffmfmmmmmfffffmmmm, backbone not given here) [STAT6 siNA duplex; target CCGAGAAUCUCUGCAGCAA, site 726] | 34.9 ± 11.5 | 53.4 ± 0.2
5 | 30016-DC: STAT6 siNA duplex; sense SEQ ID NO: 96, antisense SEQ ID NO: 97; target GCCAGAUAACCAUGCCCUU, site 2447 (sense GCCAGAUAACCAUGCCCUUTT; antisense AAGGGCAUGGUUAUCUGGCUU; sense: DNA at AGT, 2'-fluoro at CU, [invAb] at 5' end, 3' end, backbone not given here; antisense: sugars from the 5' end rrrmmfmfmmffmfffmmfmm, backbone not given here) [STAT6 siNA duplex; target GCCAGAUAACCAUGCCCUU, site 2447] | −20 ± 8.9 | 61.8 ± 2.3
6 | 30006-DC: STAT6 siNA duplex; sense SEQ ID NO: 76, antisense SEQ ID NO: 77; target CCACUAUCCUGUGGGACAA, site 1542 (sense CCACUAUCCUGUGGGACAATT; antisense UUGUCCCACAGGAUAGUGGUU; sense: DNA at AGT, 2'-fluoro at CU, [invAb] at 5' end, 3' end, backbone not given here; antisense: sugars from the 5' end rrrffffmfmmmmfmmfmmmm, backbone not given here) [STAT6 siNA duplex; target CCACUAUCCUGUGGGACAA, site 1542] | 72.9 ± 1.7 | −27.4 ± 8.5
7 | 30000-DC: STAT6 siNA duplex; sense SEQ ID NO: 64, antisense SEQ ID NO: 65; target CACAUACAGAGCUCUCUGA, site 3114 (sense CACAUACAGAGCUCUCUGATT; antisense UCAGAGAGCUCUGUAUGUGUU; sense: DNA at AGT, 2'-fluoro at CU, [invAb] at 5' end, 3' end, backbone not given here; antisense: sugars from the 5' end rrrmmmmmffffmfmfmfmmm, backbone not given here) [STAT6 siNA duplex; target CACAUACAGAGCUCUCUGA, site 3114] | 40.5 ± 12.5 | −21.9 ± 5.7
8 | 29989-DC: STAT6 siNA duplex; sense SEQ ID NO: 42, antisense SEQ ID NO: 43; target GAAGGCUUCUCCGCCCAUU, site 3187 (sense GAAGGCUUCUCCGCCCAUUTT; antisense AAUGGGCGGAGAAGCCUUCUU; sense: DNA at AGT, 2'-fluoro at CU, [invAb] at 5' end, 3' end, backbone not given here; antisense: sugars from the 5' end rrrmmmfmmmmmmmfffffmm, backbone not given here) [STAT6 siNA duplex; target GAAGGCUUCUCCGCCCAUU, site 3187] | 29.1 ± 3.8 | −18.3 ± 7.1
9 | 30014-DC: STAT6 siNA duplex; sense SEQ ID NO: 92, antisense SEQ ID NO: 93; target GGCCUUUCAGCACCGCUGU, site 1755 (sense GGCCUUUCAGCACCGCUGUTT; antisense ACAGCGGUGCUGAAAGGCCUU; sense: DNA at AGT, 2'-fluoro at CU, [invAb] at 5' end, 3' end, backbone not given here; antisense: sugars from the 5' end rrrmfmmfmffmmmmmmffmm, backbone not given here) [STAT6 siNA duplex; target GGCCUUU…UGU, site 1755] | −0.4 ± 17.4 | 30.6 ± 2.8
10 | 30007-DC: STAT6 siNA duplex; sense SEQ ID NO: 78, antisense SEQ ID NO: 79; target GGAAGUUCAGGCUCUGAGA, site 3048 (sense GGAAGUUCAGGCUCUGAGATT; antisense UCUCAGAGCCUGAACUUCCUU; sense: sugars from the 5' end d5 f3 d3 f4 d6, [invAb] at 5' end, 3' end, backbone not given here; antisense: sugars from the 5' end rrrfmmmmfffmmmfffffmm, backbone not given here) [STAT6 siNA duplex; target GGAAGUUCAGGCUCUGAGA, site 3048] | 59.8 ± 8.6 | 8.1 ± 0.8

Source: patent US20120035247A1, “RNA Interference Mediated Inhibition of Signal Transducer and Activator of Transcription 6 (STAT6) Gene Expression Using Short Interfering Nucleic Acid (siNA)” (Merck Sharp & Dohme Corp., priority 2009, published 2012)
